# Data from paper PMC12302426, “Dihydrokoumine, a dual-target analgesic with reduced side effects isolated from a traditional Chinese medicine” (Journal of Advanced Research, 2024).
# Assays:
# MOR = biological target: T1, MOR (Homo sapiens, UniProt P35372); assay: Radioligand binding assay, [3H] DAMGO; settings: [3H] DAMGO 0.5 nM
# T1 construct: expressed in transfected cells; host or cells: HEK293 cell membranes
# Method: Radioligand binding assays were conducted using MicroBeta2 (PerkinElmer, USA). Membrane protein preparations MOR and M3R were each prepared at a concentration of 2.5 µg/well. The radio ligands [^3H] DAMGO (specific for MOR) and [^3H]-NMS (specific for M3R) were prepared at concentrations of 0.5 nM and 0.2 nM, respectively. […] For each well, 1 µL of the serially diluted test compounds was transferred, followed by the addition of 100 µL of membrane stock solution and 100 µL of radioligand. The plates were sealed and shaken at 300 rpm at room temperature for one hour. Upon completion of the binding assay, the contents of each well were filtered through Unifilter-96 GF/C filter plates (PerkinElmer, USA). The filter plates were dried for one hour at 50°C and sealed. The trapped ^3H (tritium) on the filters was then quantified using the MicroBeta2. The percentage of inhibition or binding was subsequently calculated.
# orphan receptor GPR35 = biological target: T2, orphan receptor GPR35 (Homo sapiens, UniProt Q9HC97); assay: DMR desensitization assay, CHO-K1-hGPR35, probe zaprinast; assay type: cell-based; settings: 100 μM DK
# T2 construct: expressed in transfected cells; host or cells: CHO-K1-hGPR35
# T2 sequence (Q9HC97 whole entry): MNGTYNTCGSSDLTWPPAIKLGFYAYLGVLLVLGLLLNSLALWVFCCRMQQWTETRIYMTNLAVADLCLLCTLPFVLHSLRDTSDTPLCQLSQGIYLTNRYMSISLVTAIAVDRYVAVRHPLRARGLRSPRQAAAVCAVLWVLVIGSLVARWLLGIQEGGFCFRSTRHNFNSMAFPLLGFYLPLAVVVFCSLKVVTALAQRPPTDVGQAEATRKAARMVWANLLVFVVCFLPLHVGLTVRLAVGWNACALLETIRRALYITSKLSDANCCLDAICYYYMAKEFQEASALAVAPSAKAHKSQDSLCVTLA
# Method: (§1) DMR assays were performed using an Epic® BT system (Corning, NY, USA). All used cell lines were directly seeded in Epic 384-well biosensor microplates with a seeding density of 25,000 cells per well. After being cultured for about 22 h, the cells formed a monolayer with a confluency of about 95 % in the cell culture medium. Then the cells were manually washed using assay buffer (1 × HBSS buffer, 10 mM HEPES, pH = 7.4) and maintained in 30 μL of the assay buffer for 1 h. All samples were dissolved in DMSO and diluted freshly with the assay buffer containing 0.1 % BSA.
# (§2) The receptor selectivity was evaluated against a set of G protein-coupled receptors (GPCRs), including opioid receptor (Delta/Kappa/NOP), dopamine receptor (D1/D2), orphan receptor (GPR35), adrenergic receptor (α2A/β2), serotonin receptor (5HT2A), histamine receptor (H1) and cannabinoid receptor (CB1). Following a 1-hour pretreatment with DK, a 2-min baseline was established before introducing probes and monitoring DMR signals for another hour. The cells and probes were as follows: Delta, HEK293-Delta, SNC162; Kappa, HEK293-Kappa, ICI199441; NOP, HEK293-NOP, MCOPPB; D1, HEK293-D1, dopamine; D2, HEK293-D2, dopamine; GPR35, CHO-K1-hGPR35, zaprinast; 5HT2A, HEK293-5HT2A, 5-hydroxytryptamine; α2A, HEK293-α2A, L-Noradrenaline; β2, A431, isoprenaline; H1, A431, histamine; CB1, CHO-K1-CB1, CP 55940. […]
# M2R = biological target: T3, M2R (Homo sapiens, UniProt P08172); assay: FLIPR assay in HEK293-M2 cells (carbachol-induced Ca2+); assay type: cell-based; settings: DK pretreatment one hour
# T3 construct: expressed in transfected cells
# T3 sequence (P08172 whole entry): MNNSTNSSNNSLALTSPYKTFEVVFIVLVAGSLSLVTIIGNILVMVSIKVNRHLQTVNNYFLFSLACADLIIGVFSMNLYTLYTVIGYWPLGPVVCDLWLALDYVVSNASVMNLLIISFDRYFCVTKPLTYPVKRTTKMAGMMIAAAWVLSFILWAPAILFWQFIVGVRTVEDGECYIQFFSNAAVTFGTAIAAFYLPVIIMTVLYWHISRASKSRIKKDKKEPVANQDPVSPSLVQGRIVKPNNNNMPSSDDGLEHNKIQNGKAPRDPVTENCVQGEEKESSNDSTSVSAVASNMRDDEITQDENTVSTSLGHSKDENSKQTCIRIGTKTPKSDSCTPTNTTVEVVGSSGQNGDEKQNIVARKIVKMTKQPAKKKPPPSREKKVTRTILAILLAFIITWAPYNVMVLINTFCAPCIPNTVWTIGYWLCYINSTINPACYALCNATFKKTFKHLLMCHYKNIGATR
# Method: FLIPR assay was carried out as reported earlier. Cell lines were seeded in 96-well plates with black walls (Greiner, USA) at 8.0 × 10^4 cells per well. After approximately 22 h of incubation, the cells were exposed to Calcium-6 dye (Molecular Devices, USA) in HBSS buffer supplemented with 20 mM HEPES (pH 7.4) at 37°C for one hour. Samples, redissolved in DMSO and housed in 96-well drug plates, underwent dilution with FLIPR buffer and subsequent automated introduction to the cells. […] […] Results were presented as fluorescence (arbitrary units) plotted against time.
# C57BL/6 male mice [1] = assay: Rotarod test (motor coordination, sedation); assay type: in vivo; settings: DK 20, 40 mg/kg i.p., one hour before testing
# Method: Motor coordination were evaluated by the rotarod test, which was conducted as previously reported. Six-week-old C57BL/6 male mice were used in […] (n = 6). Mice underwent a three-day training period, twice daily (9:00 am and 3:00 pm), to make them stay balanced on the rotarod apparatus (Columbus), with a 3 cm diameter and rotating at a constant 11 rpm. Motor coordination was evaluated through mice's endurance on the rotating rod. Selection criteria included mice maintaining balance for 60–120 s. On the fourth day, mice were intraperitoneally injected (5 mL/kg) with a solvent mixture, morphine (5 mg/kg), or DK (20, 40 mg/kg) one hour before testing. Latency to fall (in seconds) was recorded after placing mice on the rotarod, with a 120-second cut-off time.
# mu opioid receptor (MOR) = biological target: T4, mu opioid receptor (MOR) (Homo sapiens, UniProt P35372); assay: FLIPR Ca2+ assay in HEK293T-Mu cells; assay type: cell-based
# T4 construct: expressed in transfected cells; host or cells: HEK293T-Mu
# T4 sequence (P35372 whole entry): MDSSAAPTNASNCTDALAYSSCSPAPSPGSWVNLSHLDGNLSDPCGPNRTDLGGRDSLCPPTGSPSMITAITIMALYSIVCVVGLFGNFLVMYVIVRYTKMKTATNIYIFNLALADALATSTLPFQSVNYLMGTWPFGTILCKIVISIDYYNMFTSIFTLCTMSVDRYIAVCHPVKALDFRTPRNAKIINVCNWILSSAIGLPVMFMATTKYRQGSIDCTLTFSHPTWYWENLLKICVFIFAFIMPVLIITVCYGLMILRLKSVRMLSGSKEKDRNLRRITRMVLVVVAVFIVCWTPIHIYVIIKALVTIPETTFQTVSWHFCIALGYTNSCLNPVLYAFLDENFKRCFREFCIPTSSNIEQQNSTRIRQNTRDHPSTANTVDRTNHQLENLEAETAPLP
# Method: FLIPR assay was carried out as reported earlier. Cell lines were seeded in 96-well plates with black walls (Greiner, USA) at 8.0 × 10^4 cells per well. After approximately 22 h of incubation, the cells were exposed to Calcium-6 dye (Molecular Devices, USA) in HBSS buffer supplemented with 20 mM HEPES (pH 7.4) at 37°C for one hour. Samples, redissolved in DMSO and housed in 96-well drug plates, underwent dilution with FLIPR buffer and subsequent automated introduction to the cells. […] In FLIPR antagonist experiments, cells were pre-incubated with the compound for 10 min prior to introducing a specified concentration of agonist. Results were presented as fluorescence (arbitrary units) plotted against time.
# C57BL/6 male mice [2] = assay: Formalin paw test; assay type: in vivo
# Method: The formalin test in mice was conducted following established procedures. Six-week-old C57BL/6 male mice were used in […] (n = 6). Mice were individually acclimated in a 4-liter glass beaker for 30 min prior to the test. Solvent mixture, […], morphine (5 mg/kg), or DK (20, 40 mg/kg) were injected intraperitoneally (5 mL/kg) 15 min prior to formalin injection. Formalin solution (5 %, 25 μL) was injected into the dorsal surface of the right hind paw using a 50 μL Hamilton syringe with a 30-gauge needle. […] Evaluation of MOR agonistic activity of dihydrokoumine, naloxone (2 mg/kg) was first injected intraperitoneally, immediately followed by the injection of morphine (5 mg/kg) or DK (20 mg/kg).
# cannabinoid receptor CB1 = biological target: T5, cannabinoid receptor CB1 (Homo sapiens, UniProt P21554); assay: DMR desensitization assay, CHO-K1-CB1, probe CP 55940; assay type: cell-based; settings: 100 μM DK
# T5 construct: expressed in transfected cells; host or cells: CHO-K1-CB1
# T5 sequence (P21554 whole entry): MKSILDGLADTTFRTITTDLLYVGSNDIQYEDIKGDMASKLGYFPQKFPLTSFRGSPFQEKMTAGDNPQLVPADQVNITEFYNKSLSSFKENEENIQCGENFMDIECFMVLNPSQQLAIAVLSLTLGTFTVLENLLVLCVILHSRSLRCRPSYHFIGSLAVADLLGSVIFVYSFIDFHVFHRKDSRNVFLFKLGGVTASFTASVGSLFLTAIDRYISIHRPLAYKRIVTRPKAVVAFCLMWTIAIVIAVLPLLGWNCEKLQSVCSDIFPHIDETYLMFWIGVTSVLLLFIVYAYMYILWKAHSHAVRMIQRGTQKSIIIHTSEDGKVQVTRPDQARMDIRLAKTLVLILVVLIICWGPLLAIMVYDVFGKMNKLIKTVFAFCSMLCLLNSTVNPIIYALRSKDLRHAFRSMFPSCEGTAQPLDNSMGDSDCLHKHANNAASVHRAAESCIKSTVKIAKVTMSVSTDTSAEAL
# Method: as §1, §2
# CHO cells = assay: Cytotoxicity assay (CCK-8), CHO; assay type: cell-based; settings: 24 h
# Method: HEK293T, CHO, and HUVEC cell lines were cultured overnight in 96-well plates before exposure to compounds for 24 h. Cell viability was evaluated using the Cell Counting Kit-8 (CCK-8, Beyotime Biotechnology, China), and absorbance at 450 nm was measured with a microplate reader. Cell survival rates were calculated relative to control conditions.
# T1 sequence (P35372 whole entry): as the sequence (P35372 whole entry) above
smiles,measurement,setting,value
C=CC12CN(C)C3CC14c1ccccc1NC4C1CC2C3CO1 (centres unmarked) [DK],Ki,MOR,85.7 ± 36.1 nM
same,efficacy (maximal inhibition of radioligand binding),MOR,100%
same,reduction of probe DMR response (desensitization),orphan receptor GPR35,almost unable to reduce the response
same,inhibition of carbachol-induced Ca2+ response,M2R,could not concentration-dependently inhibit
same,"sedative effect (locomotion, latency to fall)",C57BL/6 male mice [1],not a sedative at the tested doses
same,Ca2+ response after naloxone pretreatment,mu opioid receptor (MOR); 100 μM DK,significantly decreased by naloxone
same,maximum Ca2+ response compared with endomorphin-1,mu opioid receptor (MOR); FLIPR,less than half of the maximum Ca^2+ response of endomorphin-1
same,effect of naloxone on antinociception in formalin test,"C57BL/6 male mice [2]; DK 20 mg/kg, naloxone 2 mg/kg",Naloxone antagonized the antinociception of DK
same,licking time in Phase I and Phase II,"C57BL/6 male mice [2]; DK 20, 40 mg/kg i.p., formalin 5 %",remarkable decrease in the licking time in Phase I at both doses and in Phase II at high doses
same,reduction of probe DMR response (desensitization),cannabinoid receptor CB1,almost unable to reduce the response
same,cytotoxicity (cell viability),CHO cells,noncytotoxic
